Results on 13 compounds are retold here after US5556856A, “Phthalazinone derivatives that modulate multi-drug resistance” (Asta Medica Aktiengesellschaft, priority 1992, dated 1996).

The subject of one assay is inflammation pain. As to the kind of experiment: Randall-Selitto inflammation pain test (IRS). To be noted: rat; for Analgesic effect in test model IRS: 10 mg/kg p.o.; for ED50: po, read-out: Analgesic effect in test model IRS, ED50. It is filed as in vivo. The procedure: (§1) The peripheral analgesic effect was shown in the model of the Writhing Test (IWRAC) and in the model of the Randall-Selitto inflammation pain test (IRS).
^b IRS = RandallSelitto inflammation pain test. Data in % refer to a
dose or 10 mg/kg p.o. (rat). The ED50 values are given in mg/kg.

Assay [1] has as its system acetic acid induced writhing. As to the kind of experiment: Acetic acid induced Writhing Test (IWRAC). It is filed as in vivo. To be noted: mouse; for Analgesic effect in test model IWRAC: 6 mg/kg p.o.; for ED50: po, read-out: Analgesic effect in test model IWRAC, ED50. Here is the method:
as §1
^a IWRAC = Acetic acid induced Writhing Test. Data in % refer to a
dose of 6 mg/kg p.o. (mouse). The ED50 values are given in mg/kg.

The test system of assay [2] is right anteior papillary muscle. As to the kind of experiment: Antiarrhythmic properties in rabbit cardiac preparations, right anterior papillary muscle (conduction time). To be noted: Oryctolagus cuniculus, 1 h, 60 minutes, read-out: Conduction time, change in percentage from control. Here is the method: (§2) The antiarrhythmic effect was tested by the following experimental procedure:
(§3) Twenty young rabbits of mixed breed and either sex, weighing 1475±75 g (mean±S.E.), were used. The animals were sacrificed by a blow on the head, their heart was isolated and the left atrium, a strip of the anterior free wall of the right ventricle, as well as one of the papillary muscles of the right ventricle were dissected and pinned to the bottom (`non-toxic` rubber) of a thermostated organic bath, containing modified Locke's solution. The composition of the solution was the following: Na^+ 140; K^+ 5.63; Ca^2+ 2.17; glucose 11, HCO3 25; CL 125; total 309 mmol/l, pH 7.4. Continuous stirring and oxygenation of the solution were maintained by the bubbling of a mixture of 95% O2 and 5% CO2. The temperature of the organ bath was kept at 32° C. […] During the experiments the following electro-physiological parameters were determined: electrical threshold, effective refractory period and conduction time. The effective refractory period (i.e. the least interval between two successive electro-mechanical responses) was measured by applying a threefold-threshold test stimulus (1 msec, square waves) delivered from a DISA Multistim at various times following the pacing impulse. Conduction time was measured on an oscilloscope (Tektronis 2230) as a distance (i.e. time) between the artifact of the pacing stimulus and the appearance of the subsequent surface potential recorded via bipolar platinum electrodes. The auxotonically measured contractility (maximum contractile force) was also followed (papillary muscle, left atrium).
(§4) After a 60 min equilibrium in the control solution, the preparations were exposed to 10 μM of the test substance for a period of 60 min. Except for the effect on the effective refractory periods (determined at the 30th and 60th min only) all the other parameters were measured in every 15th min, i.e. four times in the presence of a given concentration of the compound examined. […]

Another assay relates to right anterior free wall. As to the kind of experiment: Antiarrhythmic properties in rabbit cardiac preparations, right anterior free wall. As to conditions: Oryctolagus cuniculus, 1 h, 60 minutes, read-out: Electrical threshold, change in percentage from control. Here is the method:
as §2, §3, §4

Another assay concerns left atrial myocardium. As to the kind of experiment: Antiarrhythmic properties in rabbit cardiac preparations, left atrial myocardium. As to conditions: Oryctolagus cuniculus, 1 h, 60 minutes; for activation at 10 µM: left atrial myocardium; for inhibition at 10 µM: left auricle, read-out: Contractility, change in percentage from control. The procedure:
as §2
(§5) Twenty young rabbits of mixed breed and either sex, weighing 1475±75 g (mean±S.E.), were used. The animals were sacrificed by a blow on the head, their heart was isolated and the left atrium, a strip of the anterior free wall of the right ventricle, as well as one of the papillary muscles of the right ventricle were dissected and pinned to the bottom (`non-toxic` rubber) of a thermostated organic bath, containing modified Locke's solution. The composition of the solution was the following: Na^+ 140; K^+ 5.63; Ca^2+ 2.17; glucose 11, HCO3 25; CL 125; total 309 mmol/l, pH 7.4. Continuous stirring and oxygenation of the solution were maintained by the bubbling of a mixture of 95% O2 and 5% CO2. The temperature of the organ bath was kept at 32° C. The isolated left atrium, papillary muscle and the strip prepared from the anterior free wall of the right ventricle were electrically paced by rectangular electric impulses of 1 msec duration, twice-threshold intensity and a 100 per min frequency. During the experiments the following electro-physiological parameters were determined: electrical threshold, effective refractory period and conduction time. The effective refractory period (i.e. the least interval between two successive electro-mechanical responses) was measured by applying a threefold-threshold test stimulus (1 msec, square waves) delivered from a DISA Multistim at various times following the pacing impulse. Conduction time was measured on an oscilloscope (Tektronis 2230) as a distance (i.e. time) between the artifact of the pacing stimulus and the appearance of the subsequent surface potential recorded via bipolar platinum electrodes. The auxotonically measured contractility (maximum contractile force) was also followed (papillary muscle, left atrium).
(§6) After a 60 min equilibrium in the control solution, the preparations were exposed to 10 μM of the test substance for a period of 60 min. Except for the effect on the effective refractory periods (determined at the 30th and 60th min only) all the other parameters were measured in every 15th min, i.e. four times in the presence of a given concentration of the compound examined.
(§7) The values given in the Tables and Figures are means ±S.E. The effect of compounds on the various parameters was estimated statistically by the t-test (Student-Welch); P values<0.05 were regarded as significant.
(§8) Antiarrhythmic properties in rabbit cardiac
(§9) incubation time with drugs 60 minutes
(§10) change in percentage from control

Assay [3] deals with right ventricular papillary muscle. As to the kind of experiment: Antiarrhythmic properties in rabbit cardiac preparations, right ventricular papillary muscle. To be noted: Oryctolagus cuniculus, 1 h, 60 minutes; for inhibition at 10 µM: papillary muscle, read-out: Contractility, change in percentage from control; for activation at 10 µM: right ventricular papillary muscle. Here is the method:
as §2, §5, §6, §7, §8, §9, §10

Setting [4] is: read-out: Conduction time, change in percentage from control.
Where [5] appears, read: read-out: Effective refractory period, change in percentage from control.
Where [6] appears, read: read-out: Electrical threshold, change in percentage from control.

Where two headings read alike, the source gives them in different places.

Regarding `O=c1c2ccccc2c(Cc2ccc(Cl)cc2)nn1C1CCCN(CCc2ccccc2)CC1` (centres unmarked), the “Analgesic effect in test model IRS” value with inflammation pain was 77%. In addition, the “Analgesic effect in test model IWRAC” value in assay [1] is 91%.

With `O=c1c2ccccc2c(Cc2ccc(F)cc2)nn1C1CCCN(Cc2ccccc2)CC1` (centres unmarked), in the assay on inflammation pain, the “Analgesic effect in test model IRS” value amounted to 53%. The “Analgesic effect in test model IWRAC” value in assay [1] was 75%.

Consider `O=c1c2ccccc2c(Cc2ccc(F)cc2)nn1C1CCCN(CCc2ccccc2)CC1` (centres unmarked), for which the “Analgesic effect in test model IRS” value with inflammation pain is 54%. In addition, the 50% effective dose (ED50) in assay [1] came out at 2.7 mg/kg.

As to `O=c1c2ccccc2c(Cc2ccc(F)cc2)nn1C1CCN(CCCc2ccccc2)CC1`, the “Analgesic effect in test model IRS” value with inflammation pain was 67%. Also, the “Analgesic effect in test model IWRAC” value in assay [1] is reported as 77%.

For the compound `O=c1c2ccccc2c(Cc2ccc(F)cc2)nn1C1CCN(CCCc2ccc(F)cc2)CC1`, in the assay with inflammation pain, the “Analgesic effect in test model IRS” value is 52%. In addition, the “Analgesic effect in test model IWRAC” value in assay [1] stood at 67%.

On to `CCOC(=O)CCN1CCC(n2nc(Cc3ccc(Cl)cc3)c3ccccc3c2=O)CC1`, for which, in the assay with inflammation pain, the “Analgesic effect in test model IRS” value is 50%. Besides, the “Analgesic effect in test model IWRAC” value in assay [1] turned out to be 67%.

As to `O=c1c2ccccc2c(Cc2ccccc2Cl)nn1C1CCCN(CCc2ccccc2)CC1` (centres unmarked), the 50% effective dose (ED50) with inflammation pain turned out to be 4.7 mg/kg; in assay [1] it was 4.1 mg/kg.

Turning to `O=c1c2ccccc2c(Cc2ccco2)nn1C1CCCN(CCc2ccccc2)CC1` (centres unmarked), the “Analgesic effect in test model IRS” value with inflammation pain turned out to be 40%.

With `O=c1c2ccccc2c(Cc2ccc(F)cc2)nn1C1CCCN(CCc2ccccc2)CC1` (racemic) [D-18024], the activation at 10 µM is 103% in assay [2]; -1% in the assay on right anterior free wall; 91% in the assay on left atrial myocardium (setting [4]); 66% in the assay with left atrial myocardium (setting [5]); 12% in the assay with left atrial myocardium (setting [6]); 7% in assay [3] (setting [5]). For the same compound, the activation at 10 µM in assay [3] (setting [6]) stood at 29%. Also, the results for the inhibition at 10 µM (with left atrial myocardium; in assay [3]) were 39% and 48%, respectively.

Regarding `O=c1c2ccccc2c(Cc2ccc(F)cc2)nn1C1CN2CCC1CC2` (centres unmarked) [4-F-Phenyl 3-Chinuclidyl], the ED50 worked out at 1.5 mg/kg in the assay on inflammation pain and 4.6 mg/kg in assay [1].

Take `CN1CCCC(n2nc(Cc3ccc(Cl)cc3)c3ccccc3c2=O)CC1` (centres unmarked) [Azelastine]: the activation at 10 µM in assay [2] was determined as 50%; in the assay on right anterior free wall it was 29%; in the assay on left atrial myocardium (setting [4]), 40%; in the assay with left atrial myocardium (setting [5]) it was 12%; in the assay with left atrial myocardium (setting [6]), 25%; in assay [3] (setting [5]), 9%. For the same compound, in assay [3] (setting [6]), the activation at 10 µM turned out to be 22%.

For `CN1[C@@H]2CC[C@H]1C[C@@H](OC(=O)c1c[nH]c3ccccc13)C2` [ICS-205930], the activation at 10 µM stood at 111% in assay [2]; 51% in the assay with right anterior free wall; 57% in the assay with left atrial myocardium (setting [4]); 26% in the assay with left atrial myocardium (setting [5]); 51% with left atrial myocardium (setting [6]); 21% in assay [3] (setting [5]). Also, the activation at 10 µM in assay [3] (setting [6]) was found to be 34%. The inhibition at 10 µM with left atrial myocardium turned out to be 33%; in assay [3] it was 29%.

`O=c1c2ccccc2c(Cc2ccccc2)nn1C1CN2CCC1CC2` (centres unmarked) [Phenyl 3-Chinuclidyl]: the ED50 was 1.5 mg/kg in the assay with inflammation pain and 3 mg/kg in assay [1].
